Assays:
COX-2 = target: T1, COX-2 (Ovis aries, UniProt P79208); assay: recombinant COX-2 enzyme inhibition; format: biochemical
T1 sequence (P79208 17-603): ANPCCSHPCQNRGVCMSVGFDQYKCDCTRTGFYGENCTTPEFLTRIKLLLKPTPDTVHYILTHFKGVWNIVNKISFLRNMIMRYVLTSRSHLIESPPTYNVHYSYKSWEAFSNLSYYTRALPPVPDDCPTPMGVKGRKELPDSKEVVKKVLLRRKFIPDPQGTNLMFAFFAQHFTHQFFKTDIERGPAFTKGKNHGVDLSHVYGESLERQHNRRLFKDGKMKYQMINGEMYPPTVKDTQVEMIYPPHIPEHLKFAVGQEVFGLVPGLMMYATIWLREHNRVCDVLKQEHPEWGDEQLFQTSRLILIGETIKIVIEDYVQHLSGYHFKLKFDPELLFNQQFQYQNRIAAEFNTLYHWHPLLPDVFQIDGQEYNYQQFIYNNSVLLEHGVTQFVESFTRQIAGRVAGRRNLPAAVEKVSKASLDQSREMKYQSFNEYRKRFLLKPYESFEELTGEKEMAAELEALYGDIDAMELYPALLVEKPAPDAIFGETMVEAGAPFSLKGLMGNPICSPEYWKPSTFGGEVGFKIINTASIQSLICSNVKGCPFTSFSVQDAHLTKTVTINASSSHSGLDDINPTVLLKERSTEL

COX-1 = target: T2, COX-1 (Ovis aries, UniProt P05979); assay: recombinant COX-1 enzyme inhibition; format: biochemical
T2 sequence (P05979 25-600): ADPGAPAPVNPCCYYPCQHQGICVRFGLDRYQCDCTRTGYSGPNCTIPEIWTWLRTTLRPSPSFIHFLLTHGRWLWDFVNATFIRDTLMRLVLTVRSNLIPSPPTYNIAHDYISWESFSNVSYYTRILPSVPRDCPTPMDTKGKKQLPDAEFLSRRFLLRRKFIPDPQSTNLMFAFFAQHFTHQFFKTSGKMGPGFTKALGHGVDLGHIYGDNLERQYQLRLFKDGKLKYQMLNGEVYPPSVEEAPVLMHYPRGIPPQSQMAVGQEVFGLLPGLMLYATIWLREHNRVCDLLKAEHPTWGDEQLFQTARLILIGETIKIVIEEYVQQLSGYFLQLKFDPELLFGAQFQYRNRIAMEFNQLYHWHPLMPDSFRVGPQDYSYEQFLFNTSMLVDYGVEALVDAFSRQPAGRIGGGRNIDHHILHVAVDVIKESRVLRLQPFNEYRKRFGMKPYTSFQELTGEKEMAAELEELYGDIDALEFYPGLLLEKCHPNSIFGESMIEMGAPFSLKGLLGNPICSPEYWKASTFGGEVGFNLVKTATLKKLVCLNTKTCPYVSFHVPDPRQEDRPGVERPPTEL

For `CC(=O)Oc1ccc(NCCc2ccc(C(F)(F)F)cc2)cc1C(=O)O` [flusalazine, 2-acetoxy-5-(2-4-(trifluoromethyl)-phenethylamino)-benzoic acid], the IC50 (COX-2) was 651 µM and the IC50 (COX-1) was 16.2 µM.

Reference: article PMC9748189 (Journal of Pain Research, 2022)
